Experimental data reported in patent publication US20260224494A1, “MILVEXIAN PHARMACEUTICAL COMPOSITIONS” (BRISTOL-MYERS SQUIBB COMPANY, priority 2023, published 2026).
Several values for one entry are separate records, joined by “and”; a condition that tells them apart may be missing. Identical values can stand only once. Like-named read-outs stand apart in the source and are kept apart here.

Experiments:
Assay type in all cases: physicochemical
[1] = Solubility test of milvexian (P1.Acetone) in DCM/MeOH 70/30 w/w %, appearance over 20 hours; conditions: 3.75 g in 19.83 g DCM and 8.5 g MeOH (70/30 w/w %); approximately 20 hours stirring
Procedure: Due to the turbid appearance of the solution when dissolving the milvexian (P1.Acetone) in 70/30 w/w % DCM/MeOH, a solubility test was performed by adding 3.75 g of milvexian (P1.Acetone) to a mixture of 19.83 g DCM and 8.5 g MeOH (DCM/MeOH 70/30 w/w %) under stirring by a magnetic stirrer. The appearance of the solution was evaluated at different timepoints over 20 hours.

[2] = Solubility of milvexian forms in organic solvent systems; conditions: 20 °C, organic solvent or mixture, thermodynamic from solid, 20° C.; for solubility at 2 weeks: read-out: Solubility in mg/mL solution 2 weeks; for solubility at 24 hours: read-out: Solubility in mg/mL solution 24 hours
Procedure: While heating of the feed solution is a viable solution for production, it is a more complex set-up and with risk of crashing out dissolved solids in case of cold spots and plant safety. Various solvent systems (See Table 11 below) were investigated with primary focus on solvent systems containing DCM due to its low boiling point and excellent solubilization properties.
Based on the data it was determined that 70/30 w/w % DCM/MeOH and 80/20 w/w % were promising solvent mixtures and more accurate solubility determination was carried out for 80/20 w/w % DCM/MeOH for both FORM A and P1.Acetone solvate at 20° C. with the results shown in Table 12 below.
P1.Acetone was the preferred crystalline form of milvexian for physical stability and manufacturability reasons. Based on the above, 80/20 w/w % DCM/MeOH solvent system was selected for development due to highly increase solubility over the 90/10 w/w % Acetone/Water solvent system.

[3] = Solubility in different aqueous media at 37° C.; conditions: for solubility at 1 day / solubility at 3 days: 37 °C, thermodynamic from solid

## C[C@@H]1CCC[C@H](n2cnc(-c3cc(Cl)ccc3-n3cc(Cl)nn3)cc2=O)c2cc(ccn2)-c2c(cnn2C(F)F)NC1=O [P1.Acetone solvate]
[1]
  solubility test, appearance of the solution: not fully dissolved
[2]; 60/40 DCM/MeOH, 60/40 DCM/MeOH
  solubility at 2 weeks: 99 mg/mL
  solubility at 24 hours: 102 mg/mL
[2]; 70/30 DCM/MeOH, 70/30 DCM/MeOH
  solubility at 2 weeks: 160 mg/mL
[2]; 80/20 DCM/MeOH, 80/20 DCM/MeOH
  solubility at 2 weeks: 227 mg/mL
  solubility at 24 hours: 226 mg/mL
[2]; 90/10 DCM/MeOH, 90/10 DCM/MeOH
  solubility at 2 weeks: 225 mg/mL
  solubility at 24 hours: 222 mg/mL
[2]; 95/5 DCM/MeOH, 95/5 DCM/MeOH
  solubility at 2 weeks: 162 mg/mL
  solubility at 24 hours: 163 mg/mL
[2]; 100% DCM, 100% DCM
  solubility at 2 weeks: 33 mg/mL
  solubility at 24 hours: 33 mg/mL
[2]; 100% MeOH, 100% MeOH
  solubility at 2 weeks: 4.8 mg/mL
  solubility at 24 hours: 4.6 mg/mL
[3]; 0.05M sodium acetate buffer pH 4.5, 1 day, single replicates
  Solubility, μg dissolved per mL at 37° C., replicates: 1.57 µg/mL
[3]; 0.05M sodium acetate buffer pH 4.5, 3 days, single replicates
  Solubility, μg dissolved per mL at 37° C., replicates: 1.95 µg/mL
[3]; 0.05M sodium phosphate buffer pH 6.8, 1 day, single replicates
  Solubility, μg dissolved per mL at 37° C., replicates: 1.29 µg/mL and 1.48 µg/mL
[3]; 0.05M sodium phosphate buffer pH 6.8, 3 days, single replicates
  Solubility, μg dissolved per mL at 37° C., replicates: 1.62 µg/mL
[3]; 0.1M HCl, pH 1, simulated gastric fluid, 0.1M HCl, 1 day, average of 3 replicates, read-out: Solubility, μg dissolved per mL at 37° C., Average
  solubility at 1 day: 3.43 µg/mL
[3]; 0.1M HCl, pH 1, simulated gastric fluid, 0.1M HCl, 1 day, single replicates, read-out: Solubility, μg dissolved per mL at 37° C., replicates
  solubility at 1 day: 3.36 µg/mL
[3]; 0.1M HCl, pH 1, simulated gastric fluid, 0.1M HCl, 3 days, average of 3 replicates, read-out: Solubility, μg dissolved per mL at 37° C., Average
  solubility at 3 days: 3.49 µg/mL
[3]; 0.1M HCl, pH 1, simulated gastric fluid, 0.1M HCl, 3 days, single replicates, read-out: Solubility, μg dissolved per mL at 37° C., replicates
  solubility at 3 days: 3.59 µg/mL
[3]; 0.1M HCl, 1 day, single replicates
  Solubility, μg dissolved per mL at 37° C., replicates: 3.47 µg/mL and 3.46 µg/mL
[3]; 0.1M HCl, 3 days, single replicates
  Solubility, μg dissolved per mL at 37° C., replicates: 3.30 µg/mL and 3.58 µg/mL
[3]; sodium acetate buffer, pH 4.5, aqueous buffer, 0.05M sodium acetate buffer pH 4.5, 1 day, average of 3 replicates, read-out: Solubility, μg dissolved per mL at 37° C., Average
  solubility at 1 day: 1.69 µg/mL
[3]; sodium acetate buffer, pH 4.5, aqueous buffer, 0.05M sodium acetate buffer pH 4.5, 1 day, single replicates, read-out: Solubility, μg dissolved per mL at 37° C., replicates
  solubility at 1 day: 1.81 µg/mL
[3]; sodium acetate buffer, pH 4.5, aqueous buffer, 0.05M sodium acetate buffer pH 4.5, 3 days, average of 3 replicates, read-out: Solubility, μg dissolved per mL at 37° C., Average
  solubility at 3 days: 1.88 µg/mL
[3]; sodium acetate buffer, pH 4.5, aqueous buffer, 0.05M sodium acetate buffer pH 4.5, 3 days, single replicates, read-out: Solubility, μg dissolved per mL at 37° C., replicates
  solubility at 3 days: 1.85 µg/mL
[3]; sodium phosphate buffer, pH 6.8, aqueous buffer, 0.05M sodium phosphate buffer pH 6.8, 1 day, average of 3 replicates, read-out: Solubility, μg dissolved per mL at 37° C., Average
  solubility at 1 day: 1.43 µg/mL
[3]; sodium phosphate buffer, pH 6.8, aqueous buffer, 0.05M sodium phosphate buffer pH 6.8, 1 day, single replicates, read-out: Solubility, μg dissolved per mL at 37° C., replicates
  solubility at 1 day: 1.53 µg/mL
[3]; sodium phosphate buffer, pH 6.8, aqueous buffer, 0.05M sodium phosphate buffer pH 6.8, 3 days, average of 3 replicates, read-out: Solubility, μg dissolved per mL at 37° C., Average
  solubility at 3 days: 1.6 µg/mL
[3]; sodium phosphate buffer, pH 6.8, aqueous buffer, 0.05M sodium phosphate buffer pH 6.8, 3 days, single replicates, read-out: Solubility, μg dissolved per mL at 37° C., replicates
  solubility at 3 days: 1.56 µg/mL
